According to patent publication US11345694B2, “Antibacterial compounds” (DISCUVA LTD., priority 2017, dated 2022):
pIC50: −log10 of the molar value. Converted amounts (≈) assume the structure as drawn.

How the values were obtained:
[1] = system: E. coli NCTC 13441 (UPEC); assay: MIC broth microdilution; type: cell-based, Escherichia coli; settings: for MIC: Escherichia coli, NCTC13441
Method in brief: (§1)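 Following CLSI standards, susceptibility is measured in cation-adjusted Müller-Hinton broth at 37° C without added CO2 for 20-24 hours. Test concentrations run 0.39-200 μM final in doubling steps, DMSO capped at 2%. MIC: lowest concentration without bacterial growth.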

[2] = system: Acinetobacter baumannii ATCC 17978 (AB); assay: MIC broth microdilution; type: cell-based; settings: for MIC: ATCC17978
Method in brief: as §1

[3] = system: Enterobacter cloacae DSM 30054 (Ed); assay: MIC broth microdilution; type: cell-based; settings: for MIC: DSM30054
Method in brief: (§2)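 Planktonic MIC determination: compound tested two-fold from 200 down to 0.39 μM final with DMSO capped at 2% final, cation-adjusted Müller-Hinton broth, 37° C for 20-24 hours. Endpoint is the lowest concentration inhibiting growth.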

[4] = system: Escherichia coli K12 (EC); assay: MIC broth microdilution; type: cell-based
Method in brief: as §1

[5] = system: Klebsiella pneumoniae ATCC 10031 (KP2); assay: MIC broth microdilution; type: cell-based; settings: for MIC: ATCC10031
Method in brief: as §2

[6] = system: Pseudomonas aeruginosa ATCC 33359 (PA); assay: MIC broth microdilution; type: cell-based; settings: for MIC: ATCC33359
Method in brief: as §1

[7] = system: Salmonella typhimurium XNAA5 (St); assay: MIC broth microdilution; type: cell-based; settings: for MIC: Salmonella enterica
Method in brief: as §1

[8] = system: Serratia marcescens SL1344 (Sm); assay: MIC broth microdilution; type: cell-based
Method in brief: as §1

[9] = system: Staphylococcus aureus ATCC 35556 (SA); assay: MIC broth microdilution; type: cell-based; settings: for MIC: ATCC35556
Method in brief: as §1

[10] = system: K. pneumoniae ATCC 700603 (KP3); assay: MIC broth microdilution; type: cell-based, Klebsiella pneumoniae; settings: for MIC: Klebsiella pneumoniae, ATCC700603
Method in brief: as §2

[11] = system: K. pneumoniae H151440671 (KP10); assay: MIC broth microdilution; type: cell-based, Klebsiella pneumoniae; settings: for MIC: Klebsiella pneumoniae
Method in brief: as §2

[12] = system: K. pneumoniae H154020667 (KP6); assay: MIC broth microdilution; type: cell-based, Klebsiella pneumoniae; settings: for MIC: Klebsiella pneumoniae
Method in brief: as §2

[13] = system: K. pneumoniae H154300688 (KP9); assay: MIC broth microdilution; type: cell-based, Klebsiella pneumoniae; settings: for MIC: Klebsiella pneumoniae
Method in brief: as §2

[14] = system: K. pneumoniae H154600588 (KP8); assay: MIC broth microdilution; type: cell-based, Klebsiella pneumoniae; settings: for MIC: Klebsiella pneumoniae
Method in brief: as §2

[15] = system: K. pneumoniae H154640784 (KP7); assay: MIC broth microdilution; type: cell-based, Klebsiella pneumoniae; settings: for MIC: Klebsiella pneumoniae
Method in brief: as §2

[16] = system: K. pneumoniae H154680676 (KP5); assay: MIC broth microdilution; type: cell-based, Klebsiella pneumoniae; settings: for MIC: Klebsiella pneumoniae
Method in brief: as §2

[17] = system: K. pneumoniae NCTC 13438 (KP1); assay: MIC broth microdilution; type: cell-based, Klebsiella pneumoniae; settings: for MIC: Klebsiella pneumoniae, NCTC13438
Method in brief: as §2

[18] = system: human hepatocarcinoma cell line ATCC HB-8065 (HepG2); assay: Human cell viability (CellTiter-Glo); type: cell-based; settings: Homo sapiens; HepG2 cells, 24 h incubation, CellTiter-Glo luminescence, 0.2-100 μM; read-out: IC50 values against the HepG2 cell line
Method in brief: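 Cytotoxicity was read as CellTiter-Glo luminescence after 24 h compound exposure at 37° C., 5% CO2. Final concentrations spanned 0.2-100 μM in two-fold steps, in 1% FBS MEM with 1% DMSO, on cells plated a day earlier at 20,000/well. IC50 came from 4-parameter logistic regression.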

[19] = system: Klebsiella pneumoniae ATCC 51504 (KP4); assay: MIC broth microdilution; type: cell-based; settings: ATCC51504
Method in brief: as §1

Structure (SMILES) | MIC UPEC [1] | MIC AB [2] | MIC Ecl [3] | MIC EC [4] | MIC PA [6] | MIC St [7] | MIC Sm [8] | MIC SA [9] | MIC [1] [µM] | MIC [2] [µM] | MIC [3] [µM] | MIC [4] [µM] | MIC [5] [µM] | MIC [6] [µM] | MIC [7] [µM] | MIC [8] [µM] | MIC [9] [µM] | MIC [10] [µM] | MIC [17] [µM] | pIC50 [18] | further results
C[C@H]1c2cccc(O)c2C(=O)C2=C(O)[C@]3(O)C(=O)C(C(N)=O)=C(O)[C@@H](N(C)C)[C@@H]3[C@@H](O)[C@@H]21 [DOX] | C (a MIC of from 10 to 100 is assigned the letter C) | A (an MIC (μM) of less or equal to 1 is assigned the letter A) | B (a MIC of from 1 to 10 is assigned the letter B) | B (a MIC of from 1 to 10 is assigned the letter B) | C (a MIC of from 10 to 100 is assigned the letter C) | B (a MIC of from 1 to 10 is assigned the letter B) | B (a MIC of from 1 to 10 is assigned the letter B) | A (an MIC (μM) of less or equal to 1 is assigned the letter A) |  |  |  |  |  |  |  |  |  |  |  |  | MIC KP2 [5]: A (an MIC (μM) of less or equal to 1 is assigned the letter A); MIC KP3 [10]: C (a MIC of from 10 to 100 is assigned the letter C); MIC KP10 [11]: B (a MIC of from 1 to 10 is assigned the letter B); MIC KP6 [12]: C (a MIC of from 10 to 100 is assigned the letter C); MIC KP9 [13]: C (a MIC of from 10 to 100 is assigned the letter C); MIC KP8 [14]: C (a MIC of from 10 to 100 is assigned the letter C); MIC KP7 [15]: C (a MIC of from 10 to 100 is assigned the letter C); MIC KP5 [16]: C (a MIC of from 10 to 100 is assigned the letter C); MIC KP1 [17]: C (a MIC of from 10 to 100 is assigned the letter C)
Cc1cc(-c2[nH]c(N)nc2-c2ccc3c(c2)CCO3)ccn1 [Example 3, 4-(2,3-Dihydrobenzofuran-5-yl)-5-(2-methylpyridin-4-yl)-1H-imidazol-2-amine] |  |  |  |  |  |  |  |  | ≤ 1 | > 100 | ≤ 1 | ≤ 1 | ≤ 1 | > 100 | ≤ 1 | 1 to 10 (≈ 0.292 to 2.92 µg/mL) | > 100 | 1 to 10 (≈ 0.292 to 2.92 µg/mL) | 1 to 10 (≈ 0.292 to 2.92 µg/mL) | < 4.00 | MIC [11]: 1 to 10 µM (≈ 0.292 to 2.92 µg/mL); MIC [12]: 1 to 10 µM (≈ 0.292 to 2.92 µg/mL); MIC [13]: 1 to 10 µM (≈ 0.292 to 2.92 µg/mL); MIC [14]: 1 to 10 µM (≈ 0.292 to 2.92 µg/mL); MIC [15]: 1 to 10 µM (≈ 0.292 to 2.92 µg/mL); MIC [16]: 1 to 10 µM (≈ 0.292 to 2.92 µg/mL)
Cc1cc(-c2nc(N)[nH]c2-c2ccc(Cl)cc2)ccn1 [Example 4, 5-(4-Chlorophenyl)-4-(2-methylpyridin-4-yl)-1H-imidazol-2-amine] |  |  |  |  |  |  |  |  | 1 to 10 (≈ 0.285 to 2.85 µg/mL) | > 100 | 1 to 10 (≈ 0.285 to 2.85 µg/mL) | ≤ 1 | ≤ 1 | > 100 | 1 to 10 (≈ 0.285 to 2.85 µg/mL) | 10 to 100 (≈ 2.85 to 28.5 µg/mL) | > 100 |  | 10 to 100 (≈ 2.85 to 28.5 µg/mL) | < 4.00 | 
Nc1cc(-c2[nH]c(N)nc2-c2ccc(OCc3ccc(F)cc3)cc2)ccn1 [Example 7, 4-(2-Amino-4-(4-((4-fluorobenzyl)oxy)phenyl)-1H-imidazol-5-yl)pyridin-2-amine] |  |  |  |  |  |  |  |  | ≤ 1 | > 100 | ≤ 1 | ≤ 1 | ≤ 1 | > 100 | ≤ 1 | ≤ 1 | 10 to 100 (≈ 3.75 to 37.5 µg/mL) | 1 to 10 (≈ 0.375 to 3.75 µg/mL) | 1 to 10 (≈ 0.375 to 3.75 µg/mL) | 4.00 to 4.60 | MIC [11]: ≤ 1 µM; MIC [12]: ≤ 1 µM; MIC [13]: ≤ 1 µM; MIC [14]: 1 to 10 µM (≈ 0.375 to 3.75 µg/mL); MIC [15]: 1 to 10 µM (≈ 0.375 to 3.75 µg/mL); MIC [16]: ≤ 1 µM
COc1ccc(-c2[nH]c(N)nc2-c2ccnc(C)c2)cc1 [Example 21, 5-(4-Methoxyphenyl)-4-(2-methylpyridin-4-yl)-1H-imidazol-2-amine] |  |  |  |  |  |  |  |  | 1 to 10 (≈ 0.28 to 2.8 µg/mL) | > 100 | > 100 | 1 to 10 (≈ 0.28 to 2.8 µg/mL) | ≤ 1 | > 100 | > 100 | > 100 | > 100 |  | 10 to 100 (≈ 2.8 to 28 µg/mL) | < 4.00 | 
Cc1cc(-c2[nH]c(N)nc2-c2ccc3c(c2)N(C(C)C)CCO3)ccn1 [Example 93, 4-(4-isopropyl-3,4-dihydro-2H-benzo[b][1,4]oxazin-6-yl)-5-(2-methylpyridin-4-yl)-1H-imidazol-2-amine] |  |  |  |  |  |  |  |  | ≤ 1 | > 100 |  | ≤ 1 | ≤ 1 | > 100 |  |  | > 100 | 1 to 10 (≈ 0.349 to 3.49 µg/mL) | 1 to 10 (≈ 0.349 to 3.49 µg/mL) | 4.00 to 4.60 | MIC [19]: ≤ 1 µM; MIC [11]: ≤ 1 µM; MIC [12]: ≤ 1 µM; MIC [13]: 1 to 10 µM (≈ 0.349 to 3.49 µg/mL); MIC [14]: 1 to 10 µM (≈ 0.349 to 3.49 µg/mL); MIC [15]: 1 to 10 µM (≈ 0.349 to 3.49 µg/mL); MIC [16]: ≤ 1 µM
C[C@@H](O)[C@H]1C(=O)N2C(C(=O)O)=C(SCCN=CN)C[C@H]12 [IPM] | A (an MIC (μM) of less or equal to 1 is assigned the letter A) | A (an MIC (μM) of less or equal to 1 is assigned the letter A) | B (a MIC of from 1 to 10 is assigned the letter B) | A (an MIC (μM) of less or equal to 1 is assigned the letter A) | B (a MIC of from 1 to 10 is assigned the letter B) | B (a MIC of from 1 to 10 is assigned the letter B) | B (a MIC of from 1 to 10 is assigned the letter B) | A (an MIC (μM) of less or equal to 1 is assigned the letter A) |  |  |  |  |  |  |  |  |  |  |  |  | MIC KP2 [5]: B (a MIC of from 1 to 10 is assigned the letter B); MIC KP3 [10]: B (a MIC of from 1 to 10 is assigned the letter B); MIC KP10 [11]: C (a MIC of from 10 to 100 is assigned the letter C); MIC KP6 [12]: B (a MIC of from 1 to 10 is assigned the letter B); MIC KP9 [13]: D (a MIC of over 100 is assigned the letter D); MIC KP8 [14]: D (a MIC of over 100 is assigned the letter D); MIC KP7 [15]: C (a MIC of from 10 to 100 is assigned the letter C); MIC KP5 [16]: B (a MIC of from 1 to 10 is assigned the letter B); MIC KP1 [17]: C (a MIC of from 10 to 100 is assigned the letter C)
NC[C@H]1O[C@H](O[C@H]2[C@H](O)[C@@H](O[C@H]3O[C@H](CO)[C@@H](O)[C@H](N)[C@H]3O)[C@H](N)C[C@@H]2N)[C@H](N)C[C@@H]1O [TOB] | D (a MIC of over 100 is assigned the letter D) | B (a MIC of from 1 to 10 is assigned the letter B) | C (a MIC of from 10 to 100 is assigned the letter C) | B (a MIC of from 1 to 10 is assigned the letter B) | B (a MIC of from 1 to 10 is assigned the letter B) | B (a MIC of from 1 to 10 is assigned the letter B) | A (an MIC (μM) of less or equal to 1 is assigned the letter A) | B (a MIC of from 1 to 10 is assigned the letter B) |  |  |  |  |  |  |  |  |  |  |  |  | 
